Measurements reported in patent US20220265676A1, “[…] DIBENZO[…] COMPOUNDS FOR USE IN THE THERAPY OF CDKL5 DISORDER” (Healx Limited, priority 2016, published 2022).

Experiments:
[1] = test system: AMPA receptor subunit GluR2; assay: CDKL5 gene silencing experiment, Western blotting of GluR2 and GluR2 phospho-Ser880 in primary hippocampal cultures; type: cell-based, mouse; settings: CDKL5-silenced hippocampal neurons
[2] = test system: AMPA receptor subunit GluR2; assay: CDKL5 gene silencing experiment, immunofluorescence of cell-surface expressed GluR2 in primary hippocampal cultures; type: cell-based, mouse; settings: 10 uM on alternate days from DIV11 to DIV18 (DIV11-13-15-17); CDKL5-silenced hippocampal neurons
[3] = test system: Cdkl5 knockout mice; assay: Rotarod assessment of motor coordination in Cdkl5 knockout mice; type: in vivo
Source text: The generation of Cdkl5 knockout mice and rotarod assessment of motor coordination could be carried out following the method described in Wang, I. -T. J et al. (2012) PNAS 109: 21516-21521, as follows.

[4] = 10 uM on alternate days from DIV11 to DIV18 (DIV11-13-15-17)
[5] = 10 μM on alternate days from DIV15-18 (DIV15-17)

Compound	effect of CDKL5 silencing on expression of the AMPA receptor subunit GluR2 (Western blotting) [1, 4]	effect of CDKL5 silencing on phosphorylated GluR2 (phosphorylation at serine-880) (Western blotting) [1, 4]	effect of CDKL5 silencing on expression of GluR2 in terms of number of puncta (immunofluorescence) [2]	time spent on the rotarod before falling ([3]; Cdkl5 knockout mice treated before onset of motor deficits, at 3 weeks of age, relative to untreated mice)	rotarod scores (motor coordination and balance) ([3]; Cdkl5 knockout mice treated from 6 weeks of age for 4 weeks, after onset of motor deficits, versus vehicle)	effect of CDKL5 silencing on expression of the AMPA receptor subunit GluR2 (Western blotting) [1, 5]	effect of CDKL5 silencing on phosphorylated GluR2 (phosphorylation at serine-880) (Western blotting) [1, 5]
CN1c2ccccc2C(NCCCCCCC(=O)O)c2ccc(Cl)cc2S1(=O)=O.O=S(=O)(O)O (stereo not drawn) [tianeptine sulphate]	reversed the effect of CDKL5 silencing	reversed the effect of CDKL5 silencing	reversed the effect of CDKL5 silencing	–	–	–	–
CN1c2ccccc2C(NCCCCCCC(=O)O)c2ccc(Cl)cc2S1(=O)=O (stereo not drawn) [Tianeptine, 7-[(3-chloro-6,1′-dihydro-6-methyl-dibenzo[c,f][1,2]thiazepin-11-yl)amino]heptanoic acid S,S-dioxide]	–	–	–	increase the time spent on the rotarod before falling	higher than scores for Cdkl5 knockout mice given vehicle but are below WT values	–	–
CN1c2ccccc2C(NCCCCOCC(=O)O)c2ccc(Cl)cc2S1(=O)=O.Cl (stereo not drawn) [TIOX, 2-(4-((3-chloro-6-methyl-5,5-dioxido-6,11-dihydrodibenzo[c,f][1,2]thiazepin-11-yl)amino)butoxy)acetic acid, HCl salt]	reversed the effect of CDKL5 silencing	reversed the effect of CDKL5 silencing	–	–	–	reversed the effect of CDKL5 silencing	reversed the effect of CDKL5 silencing
